# Marks after values point to notes of the source that are not given here. Non-standard residues stand in square brackets, D forms with d. Residues, ends and D or L forms follow the SMILES beside them.
# Legend:
# [1] = tested on: Staphylococcus aureus ATCC25923; assay: Anti-infection test of externally-applied agent on skin, viable count; assay type: in vivo, ICR mice; details: for viable count, Liver (1:5) / viable count, Skin (1:10) / viable count, Spleen (1:5) / viable count, Whole blood: 0.1 ml morning and evening for 7 days, n = 10; for inhibition of skin infection (in words): externally-applied agent, twice daily for 7 days, Staphylococcus aureus
# Excerpt: (§1) 1. Experimental Strains: Staphylococcus epidermidis ATCC12228 and Staphylococcus aureus ATCC25923
# (§2) There are 50 male ICR mice with the weight of 20±2 g. According to their weight, they are randomly divided into 5 groups of 10 mice: negative infected control group, Bactroban positive control group, 1% concentration cream group, 1‰ concentration cream group and blank ground substance group. Each group is raised in the same plastic case. Their blank parts, heads, necks, backs and tails are marked with picric acid marking method. All the mice are raised with ordinary animal feeds in the ordinary animal houses and they could drink water freely. Alternating of light and dark is conducted every 12 hours.
# (§3) There are preparation of 1% concentration, 1‰ concentration, and blank ground substance preparation (supplied by Jiangsu ProteLight Pharmaceutical & Biotechnology Co., LTD.) and Bactroban (supplied by SK&F).
# (§4) (1) The bacteria strains which preserved in liquid nitrogen are inoculated to MHB plate and cultured overnight at 37° C.
# (§5) (2) The solid strains are inoculated to MHB liquid medium and overnight cultured shakily at the speed of 220 rpm at 37° C.
# (§6) (3) The bacterial suspension cultured overnight is diluted to 5×10^6CFU/ml and applied in reserve.
# (§7) (4) Skin modeling: Mice's back are sheared and depilated by depilatory paste. After the hair off, they are abraded with 0.3 mm-long sandpaper to bleeding and injected 0.1 ml bacterial suspension with the concentration of 5×10^6CFU/ml subcutaneously.
# (§8) (5) Administration: All the groups except the negative infected control group are respectively applied different cream with the dosage of 0.1 ml once respectively in the morning and evening for 7 days.
# (§9) (6) After 7 days, the visceral organs, blood and infected skin of mice are collected by aseptic method to count viable bacteria.
# [2] = tested on: Staphylococcus epidermidis ATCC12228; assay: as above; assay type: in vivo, ICR mice; details: for viable count, Liver (1:5) / viable count, Skin (1:10) / viable count, Spleen (1:5) / viable count, Whole blood: 0.1 ml morning and evening for 7 days, n = 10; for inhibition of skin infection (in words): externally-applied agent, twice daily for 7 days, Staphylococcus epidermidis
# Excerpt: as §1, §2, §3, §4, §5, §6, §7, §8, §9
# [3] = tested on: Candida albicans and Escherichia; assay: Therapeutic experiment of injection on mice with multiple mixed infections, survival time; assay type: in vivo, ICR mice; details: for Mean survival Time / average survival time: observed fourteen days; for Mean survival Time / Mortality of mice in different days after infection: n = 20; for average survival time: injection through caudal vena twice a day for three days
# Procedure: There are 60 male and 60 female ICR mice with the weight ranging from 18 g to 22 g. According to their weight, they are randomly divided into 6 groups of 20 mice: blank control group, negative control group, Levofloxacin positive control group, and high, middle and low dose of PL-18 (SEQ ID NO: 1) group. With trinitrophenal marking method, all the mice are raised with ordinary animal feeds in the ordinary animal houses and they can drink water freely. Alternating of light and dark is conducted every 12 hours.
# 2. Infected Strains: Candida albicans and Escherichia
# PL-18 (SEQ ID NO: 1) freeze-dried powder injection (supplied by Jiangsu ProteLight Pharmaceutical & Biotechnology Co., LTD.), Levofloxacin Hydrochloride and Sodium Chloride Injection (supplied by Yangtze River Pharmaceutical Group) and 0.9% Sodium Chloride Injection (supplied by Chifeng Rongjitang Pharmaceutical CO., Ltd.)
# (1) The preparation of bacterial suspension is the same as above.
# (2) The Candida albicans suspension cultured overnight is diluted to 1×10^6CFU/ml with Sodium Chloride and 5×10^5CFU of which is injected into abdominal cavity of every mouse; the Escherichia suspension cultured overnight is diluted to 2×10^8CFU/ml and 1×10^7CFU of which is injected into abdominal cavity of every mouse to make model with mixed infections.
# (3) The blank control group is injected with normal saline into their abdominal cavity, the positive control group is injected with Levofloxacin into their abdominal cavity.
# (4) Administration: The drugs are administered according to weight right after the model is ready. All the groups except the blank and the infected negative control group are injected with different dosage of different injections through caudal vena twice a day successively for three days, and they are observed for fourteen days.
# (5) Observe death of the animals and record their survival time.
# [4] = tested on: red cell suspension from healthy volunteers; assay: Hemolytic activity test; assay type: cell-based, human; details: for Hemolytic activity, absorbancy (OD value) at 570 nm: 4 hours at 37° C., OD higher than 0.1 is hemolytic, n = 3
# Procedure: (1) Samples are serial diluted with sterile PBS to 1000, 500, 250, 125, 64, 32, 16, 8, 4 μg/ml in turn and spread in 96-well plates, 100 μl per orifice.
# (2) We use distilled water as positive control, sterile PBS as negative control and blank orifice with 200 μl PBS solution added. Each concentration above is made in triplicate.
# (3) We take 3 ml whole blood from healthy volunteers and washed it with sterile PBS three times to prepare fresh 2% concentration red cell suspension. Then we added 100 μl red cell suspension into each orifice and made them cultured for 4 hours at 37° C. in the incubator. After centrifuged by plate-swashing centrifuge, the supernatant liquid is collected and measured absorbancy (OD value) at a wavelength of 570 nm. Then we compared the hemolytic efficiency of these concentrations.
# (4) According to the documents standard, OD value which is higher than 0.1 is hemolytic concentration.
molecule,measurement,setting,value
CC(=O)N[C@H](Cc1ccccc1)C(=O)N[C@H](CCCCN)C(=O)N[C@H](CCCCN)C(=O)N[C@H](CC(C)C)C(=O)N[C@H](CCCCN)C(=O)N[C@H](CCCCN)C(=O)N[C@H](CC(C)C)C(=O)N[C@H](Cc1ccccc1)C(=O)N[C@H](CO)C(=O)N[C@H](CCCCN)C(=O)N[C@H](CC(C)C)C(=O)N[C@H](Cc1c[nH]c2ccccc12)C(=O)N[C@H](CC(N)=O)C(=O)N[C@H](Cc1c[nH]c2ccccc12)C(=O)N[C@H](CCCCN)C(N)=O [PL-18] (Ac-[dF][dK][dK][dL][dK][dK][dL][dF][dS][dK][dL][dW][dN][dW][dK]-NH2),"viable count, Liver (1:5)",[1]; 1% externally-applied agent,9 CFU/plate
same,"viable count, Skin (1:10)",[1]; 1% externally-applied agent,997 CFU/plate
same,"viable count, Spleen (1:5)",[1]; 1% externally-applied agent,8 CFU/plate
same,"viable count, Whole blood",[1]; 1% externally-applied agent,16 CFU/plate
same,"viable count, Liver (1:5)",[1]; 1‰ externally-applied agent,11 CFU/plate
same,"viable count, Skin (1:10)",[1]; 1‰ externally-applied agent,1051 CFU/plate
same,"viable count, Spleen (1:5)",[1]; 1‰ externally-applied agent,15 CFU/plate
same,"viable count, Whole blood",[1]; 1‰ externally-applied agent,12 CFU/plate
same,inhibition of skin infection (in words),[1],effective
same,"viable count, Liver (1:5)",[2]; 1% externally-applied agent,17 CFU/plate
same,"viable count, Skin (1:10)",[2]; 1% externally-applied agent,276 CFU/plate
same,"viable count, Spleen (1:5)",[2]; 1% externally-applied agent,5 CFU/plate
same,"viable count, Whole blood",[2]; 1% externally-applied agent,16 CFU/plate
same,"viable count, Liver (1:5)",[2]; 1‰ externally-applied agent,8 CFU/plate
same,"viable count, Skin (1:10)",[2]; 1‰ externally-applied agent,425 CFU/plate
same,"viable count, Spleen (1:5)",[2]; 1‰ externally-applied agent,13 CFU/plate
same,"viable count, Whole blood",[2]; 1‰ externally-applied agent,19 CFU/plate
same,inhibition of skin infection (in words),[2],effective
same,Mean survival Time,[3]; 0.2 mg/kg (low) caudal vena twice a day for three days,4.4* day
same,Mean survival Time,[3]; 1 mg/kg (middle) caudal vena twice a day for three days,5.7** day
same,curative effect on mice with multiple mixed infection (in words),[3]; 1 mg/kg dosage injection,best curative effect
same,Mean survival Time,[3]; 5 mg/kg (high) caudal vena twice a day for three days,5.3** day
same,Mortality of mice in different days after infection,"[3]; day 1, 0.2 mg/kg (low) caudal vena twice a day for three days",4
same,Mortality of mice in different days after infection,"[3]; day 1, 1 mg/kg (middle) caudal vena twice a day for three days",5
same,Mortality of mice in different days after infection,"[3]; day 1, 5 mg/kg (high) caudal vena twice a day for three days",5
same,Mortality of mice in different days after infection,"[3]; day 2, 0.2 mg/kg (low) caudal vena twice a day for three days",4
same,Mortality of mice in different days after infection,"[3]; day 2, 1 mg/kg (middle) caudal vena twice a day for three days",4
same,Mortality of mice in different days after infection,"[3]; day 2, 5 mg/kg (high) caudal vena twice a day for three days",5
same,Mortality of mice in different days after infection,"[3]; day 3, 0.2 mg/kg (low) caudal vena twice a day for three days",5
same,Mortality of mice in different days after infection,"[3]; day 3, 1 mg/kg (middle) caudal vena twice a day for three days",3
same,Mortality of mice in different days after infection,"[3]; day 3, 5 mg/kg (high) caudal vena twice a day for three days",2
same,Mortality of mice in different days after infection,"[3]; day 4, 0.2 mg/kg (low) caudal vena twice a day for three days",2
same,Mortality of mice in different days after infection,"[3]; day 4, 1 mg/kg (middle) caudal vena twice a day for three days",2
same,Mortality of mice in different days after infection,"[3]; day 4, 5 mg/kg (high) caudal vena twice a day for three days",1
same,Mortality of mice in different days after infection,"[3]; day 5, 0.2 mg/kg (low) caudal vena twice a day for three days",2
same,Mortality of mice in different days after infection,"[3]; day 5, 1 mg/kg (middle) caudal vena twice a day for three days",0
same,Mortality of mice in different days after infection,"[3]; day 5, 5 mg/kg (high) caudal vena twice a day for three days",2
same,average survival time,[3]; high dosage group,5.3 days
same,average survival time,[3]; low dosage group,4.4 days
same,average survival time,[3]; middle dosage group,5.7 days
Ac-FKKLKKLFSKLWNWK-NH2 [PL-13],"viable count, Liver (1:5)",[1]; 1% externally-applied agent,10 CFU/plate
same,"viable count, Skin (1:10)",[1]; 1% externally-applied agent,852 CFU/plate
same,"viable count, Spleen (1:5)",[1]; 1% externally-applied agent,6 CFU/plate
same,"viable count, Whole blood",[1]; 1% externally-applied agent,8 CFU/plate
same,"viable count, Liver (1:5)",[1]; 1‰ externally-applied agent,12 CFU/plate
same,"viable count, Skin (1:10)",[1]; 1‰ externally-applied agent,1005 CFU/plate
same,"viable count, Spleen (1:5)",[1]; 1‰ externally-applied agent,14 CFU/plate
same,"viable count, Whole blood",[1]; 1‰ externally-applied agent,11 CFU/plate
same,inhibition of skin infection (in words),[1],effective
same,"viable count, Liver (1:5)",[2]; 1% externally-applied agent,12 CFU/plate
same,"viable count, Skin (1:10)",[2]; 1% externally-applied agent,369 CFU/plate
same,"viable count, Spleen (1:5)",[2]; 1% externally-applied agent,5 CFU/plate
same,"viable count, Whole blood",[2]; 1% externally-applied agent,10 CFU/plate
same,"viable count, Liver (1:5)",[2]; 1‰ externally-applied agent,10 CFU/plate
same,"viable count, Skin (1:10)",[2]; 1‰ externally-applied agent,425 CFU/plate
same,"viable count, Spleen (1:5)",[2]; 1‰ externally-applied agent,17 CFU/plate
same,"viable count, Whole blood",[2]; 1‰ externally-applied agent,18 CFU/plate
same,inhibition of skin infection (in words),[2],effective
same,"Hemolytic activity, absorbancy (OD value) at 570 nm",[4]; peptide 7.8125 μg/ml,0.043
same,"Hemolytic activity, absorbancy (OD value) at 570 nm",[4]; peptide 15.625 μg/ml,0.059
same,"Hemolytic activity, absorbancy (OD value) at 570 nm",[4]; peptide 31.25 μg/ml,0.065
same,"Hemolytic activity, absorbancy (OD value) at 570 nm",[4]; peptide 62.5 μg/ml,0.090
same,"Hemolytic activity, absorbancy (OD value) at 570 nm",[4]; peptide 125 μg/ml,0.117
same,"Hemolytic activity, absorbancy (OD value) at 570 nm",[4]; peptide 250 μg/ml,0.184
same,"Hemolytic activity, absorbancy (OD value) at 570 nm",[4]; peptide 500 μg/ml,0.220
same,"Hemolytic activity, absorbancy (OD value) at 570 nm",[4]; peptide 1000 μg/ml,0.310
same,hemolytic toxicity (in words),[4]; summary of Table 9,little hemolytic toxicity

# — patent US9273095B2, “Antibiotic peptide and preparation method therefor and application therefor” (priority 2011, dated 2016)
